Earlier results in patent US12233082B2, “Compositions and methods for multi-use suppression and acquisition of viruses” (priority 2021, dated 2025).

Key:
[1] = system: HSV-2
[2] = system: HIV-1; settings: 500 mg valacyclovir twice daily, 12 weeks, vs placebo
[3] = system: HSV; settings: 500 mg valacyclovir; expected for group 2 from previous research

SMILES: CC(C)[C@H](N)C(=O)OCCOCn1cnc2c(=O)[nH]c(N)nc21 [valacyclovir]
- percentage of source partners with HSV-2 shedding in the genital tract (FIG. 1) ([1]; 500 mg valacyclovir daily, N=39 vs placebo N=50, PCR detectable shedding): decreased at a much quicker rate than those taking the placebo
- risk of transmission of HSV-2 ([1]; 500 mg valacyclovir once daily, 8 months, source partners vs placebo): reduced the risk of transmission of HSV-2
- reduction of HIV-1 viral load in plasma, on average [2]: 0.37 log10 copies/mL
- HSV PCR detectability rate median [3]: 5% of days
